72 compounds from patent US12692241B2, “Substituted triazine compound” (Nico Therapeutics, Inc., priority 2021, dated 2026) can be followed below.

For this test, the system named is IL-1β production in THP-1 cells (LPS and ATP; NLRP3 inflammasome activation). The experiment in a line: THP-1 IL-1β production inhibitory test. Format: cell-based, human. As to conditions: Homo sapiens, THP-1, 2 h, PMA-differentiated THP-1 cells, LPS 50 ng/mL and ATP 5 mM, 2 hours, ELISA; read-out: IC50 (nM), IL-1β production. The method, then: THP-1 IL-1β Production Inhibitory Test
To THP-1 cells, 50 ng/mL PMA (phorbol myristate acetate, SIGMA, P1585) was added at 37° C. and then the cells were cultured for 2 days. […] The cells were cultured at 37° C. for 15 minutes. LPS (lipopolysaccharide, SIMGA, L2880) and ATP (adenosine triphosphate, SIGMA, A2383) were added such that the final concentrations of them became 50 ng/mL and 5 mM, respectively. The cells were cultured at 37° C. for 2 hours. The supernatant was collected and the concentration of IL-1β was measured by ELISA (DuoSet ELISA human IL-1β, R&D Systems, DY201). The concentration of IL-1β was plotted against the logarithm of the concentration of the test compound, and the IC50 value was calculated by sigmoidal Emax model nonlinear regression analysis.
(ELISA stands for enzyme-linked immunosorbent assay.)

As usually defined, the IC50 is the concentration that inhibits the measured activity by half.

As to `COc1ccc(-c2nnc(N[C@@H]3CCOC[C@H]3O)nc2C)c(O)c1` [Example 61], the IC50 stood at 36 nM.
To `Cc1nc(N[C@H]2CNC2=O)nnc1-c1ccc(C(F)(F)F)cc1O` [Example 62] belongs 28 nM.
As to `Cc1nc(N[C@@H]2CNC(=O)C2)nnc1-c1ccc(C(F)(F)F)cc1O` [Example 63], the IC50 came to 200 nM.
Turning to `Cc1nc(N[C@H]2CC[C@]2(C)O)nnc1-c1ccc(C(F)(F)F)cc1O` [Example 64], the concentration for half-maximal inhibition (IC50) came out at 62 nM.
As for `Cc1nc(N[C@@H]2CNC2=O)nnc1-c1ccc(C(F)(F)F)cc1O` [Example 65], the figure is 110 nM; as for `Cc1nc(N[C@H]2CNC(=O)C2)nnc1-c1ccc(C(F)(F)F)cc1O` [Example 66], 150 nM.
For `Cc1nc(N[C@@H]2CCCC[C@H]2O)nnc1-c1ccc(C2CC2)cc1O` [Example 67], the IC50 came out at 9.6 nM.
To `Cc1nc(NC[C@H](O)C(F)(F)F)nnc1-c1ccc(C(F)(F)F)cc1O` [Example 68] belongs 57 nM; to `Cc1nc(N[C@@H]2CCC(F)(F)C[C@H]2O)nnc1-c1ccc(C(F)(F)F)cc1O` [Example 69], 30 nM; to `Cc1nc(N[C@H]2CCNC2=O)nnc1-c1ccc(Cl)cc1O` [Example 70], 10 nM.
For the compound `Cc1ccc(-c2nnc(N[C@H]3CCNC3=O)nc2C)c(O)c1` [Example 71], the concentration for half-maximal inhibition (IC50) was determined as 8.2 nM.
On to `Cc1nc(N[C@H]2CCNC2=O)nnc1-c1ccc(OC(F)(F)F)cc1O` [Example 72], for which the IC50 was 8.3 nM.
As for `Cc1nc(N[C@H]2CCN(C)C2=O)nnc1-c1ccc(C(F)(F)F)cc1O` [Example 74], the figure is 620 nM; as for `Cc1nc(N[C@@H]2CCCCC[C@H]2O)nnc1-c1ccc(C(F)(F)F)cc1O` [Example 76], 16 nM.
As for `Cc1nc(N[C@H]2C[C@@](C)(O)C2)nnc1-c1ccc(C2CC2)cc1O` [Example 77], the figure is 67 nM; as for `Cc1nc(N[C@@H]2CCOC[C@H]2O)nnc1-c1ccc(C2CC2)cc1O` [Example 78], 27 nM; as for `Cc1nc(N[C@@H]2CCCC[C@@H](O)C2)nnc1-c1ccc(C(F)(F)F)cc1O` [Example 79], 14 nM.
Turning to `Cc1nc(N[C@@H]2CCOC[C@@]2(C)O)nnc1-c1ccc(C(F)(F)F)cc1O` [Example 80], the IC50 stood at 12 nM.
As for `Cc1ccc(-c2nnc(N[C@@H]3CCC[C@H](O)C3)nc2C)c(O)c1` [Example 81], the figure is 42 nM; as for `Cc1nc(N[C@@H]2CCC[C@H](O)C2)nnc1-c1ccc(Cl)cc1O` [Example 82], 30 nM.
To `Cc1nc(N[C@@H]2CCC[C@H](O)C2)nnc1-c1ccc(C2CC2)cc1O` [Example 83] belongs 32 nM; to `Cc1nc(N[C@@H]2CCC[C@H](O)C2)nnc1-c1ccc(OC(F)(F)F)cc1O` [Example 84], 38 nM; to `Cc1nc(NCC(C)(C)O)nnc1-c1ccc(C(F)(F)F)cc1O` [Example 85], 57 nM.
To `CC(=O)NCCCCNc1nnc(-c2ccc(C(F)(F)F)cc2O)c(C)n1` [Example 86] belongs 12 nM.
For the compound `Cc1nc(NCC(F)F)nnc1-c1ccc(C(F)(F)F)cc1O` [Example 87], the half-maximal inhibitory concentration (IC50) was 130 nM.
For the compound `Cc1nc(Nc2cnn(CCO)c2)nnc1-c1ccc(C(F)(F)F)cc1O` [Example 89], the 50% inhibitory concentration (IC50) was found to be 230 nM.
As for `Cc1nc(Nc2ccn(CCO)n2)nnc1-c1ccc(C(F)(F)F)cc1O` [Example 90], the figure is 53 nM; as for `Cc1nc(NCC2CC2)nnc1-c1ccc(C(F)(F)F)cc1O` [Example 91], 52 nM.
To `Cc1nc(NCc2cccnc2)nnc1-c1ccc(C(F)(F)F)cc1O` [Example 92] belongs 200 nM; to `Cc1nc(Nc2cnn(C)c2)nnc1-c1ccc(C(F)(F)F)cc1O` [Example 93], 130 nM.
As for `Cc1nc(NCc2cc[nH]n2)nnc1-c1ccc(C(F)(F)F)cc1O` [Example 94], the IC50 was 70 nM.
As for `Cc1nc(NCCN2CCOCC2)nnc1-c1ccc(C(F)(F)F)cc1O` [Example 95], the figure is 410 nM; as for `Cc1nc(NCC2CCCCO2)nnc1-c1ccc(C(F)(F)F)cc1O` (stereo not drawn) [Example 96], 81 nM; as for `Cc1nc(Nc2ccn(C)n2)nnc1-c1ccc(C(F)(F)F)cc1O` [Example 97], 150 nM.
To `Oc1cc(C(F)(F)F)ccc1-c1nnc(N[C@@H]2CCCC[C@H]2O)nc1-c1ccccc1` [Example 98] belongs 280 nM; to `Cc1nc(N[C@H]2C[C@H](CO)C2)nnc1-c1ccc(C(F)(F)F)cc1O` [Example 99], 9.4 nM; to `Cc1nc(N[C@H]2C[C@@H](CO)C2)nnc1-c1ccc(C(F)(F)F)cc1O` [Example 100], 6.4 nM.
Turning to `Cc1nc(NCCC#N)nnc1-c1ccc(C(F)(F)F)cc1O` [Example 101], the IC50 is 130 nM.
As for `Cc1nc(N[C@@H]2CC[C@H](C#N)C2)nnc1-c1ccc(C(F)(F)F)cc1O` [Example 102], the figure is 11 nM.
As to `Cc1nc(N[C@@H]2CC[C@@H](C#N)C2)nnc1-c1ccc(C(F)(F)F)cc1O` [Example 103], the IC50 worked out at 30 nM.
As for `CC(=O)NCCC1(CNc2nnc(-c3ccc(C(F)(F)F)cc3O)c(C)n2)CCC1` [Example 104], the figure is 91 nM; as for `CC(=O)NC[C@H]1C[C@@H](Nc2nnc(-c3ccc(C(F)(F)F)cc3O)c(C)n2)C1` [Example 105], 36 nM.
To `CC(=O)NC[C@H]1C[C@H](Nc2nnc(-c3ccc(C(F)(F)F)cc3O)c(C)n2)C1` [Example 106] belongs 26 nM; to `Cc1nc(Nc2ccn(C[C@@H](C)O)n2)nnc1-c1ccc(C(F)(F)F)cc1O` [Example 107], 25 nM; to `Oc1cc(C(F)(F)F)ccc1-c1nnc(N[C@@H]2CCCC[C@H]2O)nc1C1CC1` [Example 109], 17 nM.
`Oc1cc(C(F)(F)F)ccc1-c1nnc(N[C@@H]2CCC[C@H]2O)nc1C1CC1` [Example 110]: the half-inhibitory concentration (IC50) was found to be 15 nM.
Turning to `Oc1cc(C(F)(F)F)ccc1-c1nnc(N[C@@H]2CCOC[C@H]2O)nc1C1CC1` [Example 111], the IC50 came out at 12 nM.
To `Oc1cc(OC(F)(F)F)ccc1-c1nnc(N[C@@H]2CCOC[C@H]2O)nc1C1CC1` [Example 112] belongs 18 nM.
To `Oc1cc(Cl)ccc1-c1nnc(N[C@@H]2CCOC[C@H]2O)nc1C1CC1` [Example 113] belongs 37 nM; to `Cc1ccc(-c2nnc(N[C@@H]3CCOC[C@H]3O)nc2C2CC2)c(O)c1` [Example 114], 33 nM.
To `Oc1cc(Cl)ccc1-c1nnc(N[C@@H]2CCCC[C@H]2O)nc1C1CC1` [Example 115] belongs 8.5 nM.
For `Oc1cc(OC(F)(F)F)ccc1-c1nnc(N[C@@H]2CCCC[C@H]2O)nc1C1CC1` [Example 116], the IC50 stood at 23 nM.
As for `Cc1ccc(-c2nnc(N[C@@H]3CCCC[C@H]3O)nc2C2CC2)c(O)c1` [Example 117], the figure is 19 nM; as for `Oc1cc(C(F)(F)F)ccc1-c1nnc(N[C@@H]2CCCC[C@H]2O)nc1C(F)F` [Example 118], 47 nM; as for `Cc1ccc(-c2nnc(N[C@H]3C[C@@](C)(O)C3)nc2C2CC2)c(O)c1` [Example 119], 42 nM.
`C[C@]1(O)C[C@@H](Nc2nnc(-c3ccc(OC(F)(F)F)cc3O)c(C3CC3)n2)C1` [Example 120]: the half-maximal inhibitory concentration (IC50) turned out to be 83 nM.
As for `C[C@]1(O)C[C@@H](Nc2nnc(-c3ccc(Cl)cc3O)c(C3CC3)n2)C1` [Example 121], the figure is 43 nM; as for `C[C@@]1(O)CCCC[C@H]1Nc1nnc(-c2ccc(C(F)(F)F)cc2O)c(C2CC2)n1` [Example 122], 15 nM.
Regarding `C[C@@]1(O)CCCC[C@H]1Nc1nnc(-c2ccc(Cl)cc2O)c(C2CC2)n1` [Example 123], the IC50 stood at 54 nM.
Take `C[C@@]1(O)CCCC[C@H]1Nc1nnc(-c2ccc(OC(F)(F)F)cc2O)c(C2CC2)n1` [Example 124]: the IC50 is 37 nM.
To `O=C1NCC[C@@H]1Nc1nnc(-c2ccc(Cl)cc2O)c(C2CC2)n1` [Example 125] belongs 33 nM.
As for `O=C1NCC[C@@H]1Nc1nnc(-c2ccc(OC(F)(F)F)cc2O)c(C2CC2)n1` [Example 126], the figure is 20 nM.
To `O=C1NCC[C@@H]1Nc1nnc(-c2ccc(C(F)(F)F)cc2O)c(C2CC2)n1` [Example 127] belongs 10 nM; to `CC(C)c1nc(N[C@@H]2CCCC[C@H]2O)nnc1-c1ccc(C(F)(F)F)cc1O` [Example 128], 7.9 nM; to `CC(C)c1nc(NC[C@@H](C)O)nnc1-c1ccc(C(F)(F)F)cc1O` [Example 129], 55 nM.
In the case of `C[C@@H](O)CNc1nnc(-c2ccc(C(F)(F)F)cc2O)c(C(F)(F)F)n1` [Example 130], the IC50 stood at 260 nM.
To `Cc1nc(N[C@@H]2CCNC2)nnc1-c1ccc(C(F)(F)F)cc1O` [Example 133] belongs 95 nM.
To `Cc1nc(NC[C@@H]2CCCN2)nnc1-c1ccc(C(F)(F)F)cc1O` [Example 134] belongs 38 nM.
As for `Cc1nc(NC[C@@H]2CCCNC2)nnc1-c1ccc(C(F)(F)F)cc1O` [Example 135], the figure is 450 nM.
As to `Cc1nc(NC[C@H](C)CCN)nnc1-c1ccc(C(F)(F)F)cc1O` [Example 136], the IC50 was 61 nM.
To `Cc1nc(N[C@H]2CCCNC2)nnc1-c1ccc(C(F)(F)F)cc1O` [Example 137] belongs 1500 nM; to `Cc1nc(N[C@@H]2CCCNC2)nnc1-c1ccc(C(F)(F)F)cc1O` [Example 138], 5.6 nM.
